Source: US8568736B2, “Polypeptide derivatives of parathyroid hormone (PTH)” (The General Hospital Corporation, priority 1999, dated 2013)
No end group written: not given here.

Target: T1, rat PTH-1 receptor (endogenous, ROS 17/2.8 cells) (Rattus norvegicus, UniProt P25961)
T1 construct: The rat osteoblastic cell line ROS 17/2.8; endogenous in cells; host or cells: ROS 17/2.8 rat osteoblastic cells
T1 sequence (P25961 27-591): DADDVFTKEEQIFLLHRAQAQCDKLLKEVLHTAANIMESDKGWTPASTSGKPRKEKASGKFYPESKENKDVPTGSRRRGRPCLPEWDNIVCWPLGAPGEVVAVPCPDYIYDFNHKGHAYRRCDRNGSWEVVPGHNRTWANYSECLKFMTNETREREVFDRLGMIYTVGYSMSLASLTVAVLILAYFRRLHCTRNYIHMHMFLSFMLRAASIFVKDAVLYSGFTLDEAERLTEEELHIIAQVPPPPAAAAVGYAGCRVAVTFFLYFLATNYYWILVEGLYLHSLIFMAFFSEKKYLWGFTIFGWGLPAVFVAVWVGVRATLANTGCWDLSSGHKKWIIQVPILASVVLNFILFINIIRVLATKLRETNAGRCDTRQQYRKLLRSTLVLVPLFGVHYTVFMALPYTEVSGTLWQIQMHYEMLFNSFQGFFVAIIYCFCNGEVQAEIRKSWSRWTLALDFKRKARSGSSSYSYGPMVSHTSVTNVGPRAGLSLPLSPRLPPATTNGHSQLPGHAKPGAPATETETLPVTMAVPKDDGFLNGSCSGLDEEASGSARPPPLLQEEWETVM
Assay: cAMP response in osteoblastic ROS 17/2.8 cells
Assay type: cell-based
Conditions: not given
Protocol: The rat osteoblastic cell line ROS 17/2.8 (Majeska, R. J., et al, Endocrinology 107:1494-1503 (1980)) expresses endogenous PTH-1 receptors at levels of 80,000 per cell and the human osteoblastic cell line, SAOS-2, express endogenous PTH-1 receptors at levels of ˜30,000 per cell.
Stimulation of cells with peptide analogs was performed in 24-well plates. Cells were rinsed with 0.5 mL of binding buffer and treated with 200 μL of cAMP assay buffer (Dulbecco's modified Eagle's medium containing 2 mM 3-isobutyl-1-methylxanthine, 1 mg/mL bovine serum albumin, 35 mM Hepes-NaOH, pH 7.4) and 100 μL of binding buffer containing varying amounts of peptide analog (final volume=300 μL). The medium was removed after incubation for 1 h at room temperature, and the cells were frozen (−80° C.), lysed with 0.5 mL 50 mM HCl, and refrozen (−80° C.). The cAMP content of the diluted lysate was determined by radioimmunoassay. Where possible, cAMP EC50 and Maximum response values were determined using nonlinear regression (see below).
All calculations were performed using Microsoft Excel. Nonlinear regression analysis of cAMP stimulation data was performed using parameters, defined as the Minimum, Maximum, Emax, midpoint (EC50), and slope of the response curve. The predicted response (yp) for a given dose (x) of peptide was calculated using the following equation: yp=Min+[(Max−Min)/(1+(EC50/x)^slope)]. The initial parameter values were estimated from the primary data, and the Excel “Solver function” was then used to vary the four parameters in order to minimize the differences between the predicted and actual responses (least-squares method) (Bowen, W., & Jerman, J., Trends in Pharmacol. Sci. 16:413-417 (1995)). The statistical significance between two data sets was determined using a one-tailed Student's t-test, assuming unequal variances for the two sets.

Compound | EC50 [nM]
CCCC[C@H](NC(=O)[C@H](CCCNC(=N)N)NC(=O)[C@H](CCC(=O)O)NC(=O)[C@@H](NC(=O)[C@H](CO)NC(=O)[C@H](C)NC(=O)[C@H](CC(C)C)NC(=O)[C@H](Cc1c[nH]cn1)NC(=O)[C@H](CCCCN)NC(=O)CNC(=O)[C@H](CC(C)C)NC(=O)[C@H](CC(N)=O)NC(=O)[C@H](Cc1c[nH]cn1)NC(=O)[C@H](CCCC)NC(=O)[C@H](CC(C)C)NC(=O)[C@H](CCC(N)=O)NC(=O)[C@@H](NC(=O)[C@H](CCC(=O)O)NC(=O)[C@H](CO)NC(=O)[C@@H](NC(=O)[C@H](C)N)C(C)C)[C@@H](C)CC)C(C)C)C(=O)N[C@@H](CCC(N)=O)C(=O)N[C@@H](Cc1c[nH]c2ccccc12)C(=O)N[C@@H](CC(C)C)C(=O)N[C@@H](CCCNC(=N)N)C(=O)N[C@@H](CCCCN)C(=O)N[C@@H](CCCCN)C(=O)N[C@@H](CC(C)C)C(=O)N[C@@H](CCC(N)=O)C(=O)N[C@@H](CC(=O)O)C(=O)N[C@H](C(=O)N[C@@H](Cc1c[nH]cn1)C(=O)N[C@@H](CC(N)=O)C(=O)N[C@@H](Cc1ccc(O)cc1)C(N)=O)C(C)C [[Nle8, 21, Y34]rPTH(1-34), [Nle^8,21,Tyr^34]-rPTH(1-34)NH2, reference compound] | 0.316

Same assay, conditions: ROS 17/2.8 cells

Compound | Emax [picomole/well]
CCCC[C@H](NC(=O)[C@H](CCCNC(=N)N)NC(=O)[C@H](CCC(=O)O)NC(=O)[C@@H](NC(=O)[C@H](CO)NC(=O)[C@H](C)NC(=O)[C@H](CC(C)C)NC(=O)[C@H](Cc1c[nH]cn1)NC(=O)[C@H](CCCCN)NC(=O)CNC(=O)[C@H](CC(C)C)NC(=O)[C@H](CC(N)=O)NC(=O)[C@H](Cc1c[nH]cn1)NC(=O)[C@H](CCCC)NC(=O)[C@H](CC(C)C)NC(=O)[C@H](CCC(N)=O)NC(=O)[C@@H](NC(=O)[C@H](CCC(=O)O)NC(=O)[C@H](CO)NC(=O)[C@@H](NC(=O)[C@H](C)N)C(C)C)[C@@H](C)CC)C(C)C)C(=O)N[C@@H](CCC(N)=O)C(=O)N[C@@H](Cc1c[nH]c2ccccc12)C(=O)N[C@@H](CC(C)C)C(=O)N[C@@H](CCCNC(=N)N)C(=O)N[C@@H](CCCCN)C(=O)N[C@@H](CCCCN)C(=O)N[C@@H](CC(C)C)C(=O)N[C@@H](CCC(N)=O)C(=O)N[C@@H](CC(=O)O)C(=O)N[C@H](C(=O)N[C@@H](Cc1c[nH]cn1)C(=O)N[C@@H](CC(N)=O)C(=O)N[C@@H](Cc1ccc(O)cc1)C(N)=O)C(C)C [[Nle8, 21, Y34]rPTH(1-34), [Nle^8,21,Tyr^34]-rPTH(1-34)NH2, reference compound] | 364 ± 6
AVAEIQLMHAR-NH2 [compound 6, AlaValAlaGluIleGlnLeuMetHisAlaArg-amide] | 377 ± 23
AVAEIQLMHARAKH-NH2 [Peptide #1, AlaValAlaGluIleGlnLeuMetHisAlaArgAlaLysHis-amide] | 395 ± 1
AVAEIQLMHARAKHLNSMERVEWLRKKLQDVHNY-NH2 [Peptide #7] | 395 ± 1
AVSEIQLMHNLGKH-NH2 [native rPTH(1-14), AVSEIQLMHNLGKH, reference compound] | 376 ± 23
